Measured values: ChEMBL document CHEMBL5584243, “Discovery of JNJ-74856665: A Novel Isoquinolinone DHODH Inhibitor for the Treatment of AML” (J Med Chem, 2024)
≈ marks a conversion by molar mass, not a printed value.

How the values were obtained:
[1] = Oral bioavailability in cynomolgus monkey at 10 mg/kg; type: ADME, organism-based, Macaca fascicularis; details: in vivo
[2] = biological target: Voltage-gated inwardly rectifying potassium channel KCNH2 (Homo sapiens, UniProt Q12809); assay: Inhibition of hERG; type: toxicity
Chain of Voltage-gated inwardly rectifying potassium channel KCNH2 (Q12809 whole entry): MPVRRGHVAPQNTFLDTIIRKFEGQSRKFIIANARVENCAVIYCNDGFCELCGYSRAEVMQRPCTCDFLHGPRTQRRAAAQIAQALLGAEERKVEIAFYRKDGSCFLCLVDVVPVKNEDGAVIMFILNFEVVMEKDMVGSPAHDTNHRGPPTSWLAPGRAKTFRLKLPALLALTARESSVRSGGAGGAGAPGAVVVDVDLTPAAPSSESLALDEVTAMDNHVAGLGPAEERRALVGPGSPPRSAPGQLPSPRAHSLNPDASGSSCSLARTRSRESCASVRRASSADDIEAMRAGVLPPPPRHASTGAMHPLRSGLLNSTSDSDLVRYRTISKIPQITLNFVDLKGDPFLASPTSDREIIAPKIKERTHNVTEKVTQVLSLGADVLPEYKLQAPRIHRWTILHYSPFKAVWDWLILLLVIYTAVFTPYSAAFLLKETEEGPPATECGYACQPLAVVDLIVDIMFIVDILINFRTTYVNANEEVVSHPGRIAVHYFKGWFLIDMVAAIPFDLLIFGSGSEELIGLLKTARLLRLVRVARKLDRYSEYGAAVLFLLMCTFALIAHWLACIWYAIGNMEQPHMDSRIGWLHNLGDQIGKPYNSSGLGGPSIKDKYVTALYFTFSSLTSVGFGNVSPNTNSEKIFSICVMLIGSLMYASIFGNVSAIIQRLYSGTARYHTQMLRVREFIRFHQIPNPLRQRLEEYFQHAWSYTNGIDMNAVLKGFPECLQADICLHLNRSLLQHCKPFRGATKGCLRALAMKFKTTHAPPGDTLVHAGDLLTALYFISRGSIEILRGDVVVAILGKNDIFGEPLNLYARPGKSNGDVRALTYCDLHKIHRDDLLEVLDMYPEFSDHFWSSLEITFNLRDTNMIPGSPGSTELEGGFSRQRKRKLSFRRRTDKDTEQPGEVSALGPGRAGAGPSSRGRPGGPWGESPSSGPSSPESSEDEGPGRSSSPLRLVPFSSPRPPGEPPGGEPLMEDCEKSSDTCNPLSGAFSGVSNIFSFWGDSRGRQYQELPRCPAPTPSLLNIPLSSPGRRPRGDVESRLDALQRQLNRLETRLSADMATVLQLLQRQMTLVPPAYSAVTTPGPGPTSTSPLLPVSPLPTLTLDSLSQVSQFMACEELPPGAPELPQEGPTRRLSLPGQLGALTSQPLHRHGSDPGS

MOLM-13 [3] = assay: Antitumor activity against human MOLM-13 cells xenografted in NSG mouse assessed as tumor growth inhibition at 0.031 mg/kg,po administrated daily for 10 days relative to control; type: functional; details: MOLM-13, 240 h, time 10 day, read-out: TGI
[4] = Equilibrium solubility of compound in PBS at pH 7 incubated for 2 to 5 days by HPLC analysis; type: physicochemical; details: time 2-5 day
[5] = Cmax in C57BL mouse at […] measured upto 24 hrs by LC-MS/MS analysis; type: ADME, organism-based; details: in vivo
[6] = Half life in mouse hepatocyte; type: ADME, cell-based; details: hepatocytes
[7] = Metabolic stability in rat liver microsomes assessed as half life incubated upto 60 mins in presence of NADPH by LC-MS/MS analysis; type: ADME, Microsome
MOLM-13 [8] = assay: Antitumor activity against human MOLM-13 cells xenografted in NSG mouse assessed as tumor growth inhibition at 0.062 mg/kg,po administrated daily for 10 days relative to control; type: functional; details: MOLM-13, 240 h, time 10 day, read-out: TGI
[9] = Equilibrium solubility of compound in SGF at pH 1 using crystalline form incubated for 2 to 5 days by HPLC analysis; type: ADME; details: time 2-5 day
[10] = biological target: Dihydroorotate dehydrogenase (quinone), mitochondrial (Homo sapiens, UniProt Q02127); assay: Binding affinity to recombinant human DHODH assessed as dissociation constant by surface plasmon resonance assay
Chain of Dihydroorotate dehydrogenase (quinone), mitochondrial (Q02127 whole entry): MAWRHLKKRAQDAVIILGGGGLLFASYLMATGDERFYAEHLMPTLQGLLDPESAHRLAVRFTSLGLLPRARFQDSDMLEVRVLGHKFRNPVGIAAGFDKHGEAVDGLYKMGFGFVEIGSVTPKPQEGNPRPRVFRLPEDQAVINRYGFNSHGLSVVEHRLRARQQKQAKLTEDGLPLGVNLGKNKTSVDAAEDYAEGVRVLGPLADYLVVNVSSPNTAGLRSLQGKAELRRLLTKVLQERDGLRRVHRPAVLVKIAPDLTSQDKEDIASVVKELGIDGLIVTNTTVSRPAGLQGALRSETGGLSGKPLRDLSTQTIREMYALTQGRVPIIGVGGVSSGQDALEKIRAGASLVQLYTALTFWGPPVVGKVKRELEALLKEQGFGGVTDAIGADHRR

[11] = AUC (0 to infinity) in cynomolgus monkey at 10 mg/kg,po; type: ADME, organism-based, Macaca fascicularis; details: in vivo
MOLM-13 [12] = assay: Antitumor activity against human MOLM-13 cells xenografted in NSG mouse assessed as tumor growth inhibition at 0.125 mg/kg,po administrated daily for 10 days relative to control; type: functional; details: MOLM-13, 240 h, time 10 day, read-out: TGI
[13] = Metabolic stability in monkey liver microsomes assessed as half life incubated upto 60 mins in presence of NADPH by LC-MS/MS analysis; type: ADME, Macaca mulatta, Microsome; details: rhesus monkey
[14] = biological target: T1, Kappa-type opioid receptor (Homo sapiens, UniProt P41145); assay: Inhibition of KOP (unknown origin)
T1 sequence (P41145 whole entry): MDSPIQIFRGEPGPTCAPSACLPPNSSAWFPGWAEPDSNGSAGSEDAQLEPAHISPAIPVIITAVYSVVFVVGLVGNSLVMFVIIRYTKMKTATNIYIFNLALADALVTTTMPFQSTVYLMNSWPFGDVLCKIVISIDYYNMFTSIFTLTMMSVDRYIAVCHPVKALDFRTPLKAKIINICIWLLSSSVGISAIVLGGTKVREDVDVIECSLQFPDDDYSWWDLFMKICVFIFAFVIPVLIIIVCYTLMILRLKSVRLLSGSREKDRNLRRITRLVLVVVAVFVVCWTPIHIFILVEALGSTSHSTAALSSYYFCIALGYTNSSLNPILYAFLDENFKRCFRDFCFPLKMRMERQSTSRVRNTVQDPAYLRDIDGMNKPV

[15] = Oral bioavailability in C57BL mouse at 10 mg/kg measured upto 24 hrs by LC-MS/MS analysis; type: ADME, organism-based; details: in vivo
[16] = biological target: T1, Kappa-type opioid receptor; assay: Inhibition of KOP (unknown origin) at 10 uM relative to control
CYP3A4 [17] = biological target: T2, CYP3A4 (Homo sapiens, UniProt P08684); assay: Induction of CYP3A4 in cryopreserved human hepatocytes using midazolam as substrate assessed as fold change at 10 uM relative to control; type: ADME, cell-based, Hepatocyte; details: probe midazolam, read-out: FC
T2 sequence (P08684 whole entry): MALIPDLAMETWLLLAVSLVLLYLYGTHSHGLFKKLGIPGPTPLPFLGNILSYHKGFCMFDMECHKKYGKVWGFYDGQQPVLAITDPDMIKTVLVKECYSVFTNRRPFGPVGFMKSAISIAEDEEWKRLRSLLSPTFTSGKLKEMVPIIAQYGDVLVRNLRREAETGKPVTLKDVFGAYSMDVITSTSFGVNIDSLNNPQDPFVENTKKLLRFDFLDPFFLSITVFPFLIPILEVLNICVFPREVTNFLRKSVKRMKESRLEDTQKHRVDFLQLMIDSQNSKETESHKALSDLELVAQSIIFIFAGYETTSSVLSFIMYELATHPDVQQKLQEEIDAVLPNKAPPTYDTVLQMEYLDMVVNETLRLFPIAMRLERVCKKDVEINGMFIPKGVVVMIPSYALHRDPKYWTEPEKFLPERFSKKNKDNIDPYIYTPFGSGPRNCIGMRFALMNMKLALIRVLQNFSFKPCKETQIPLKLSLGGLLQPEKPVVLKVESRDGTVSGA

CYP3A4 [18] = biological target: T2, CYP3A4; assay: Induction of CYP3A4 in cryopreserved human hepatocytes using midazolam as substrate assessed as fold change at 1 uM relative to control; type: ADME, cell-based, Hepatocyte; details: probe midazolam, read-out: FC
[19] = Inhibition of Sodium ion channel (unknown origin); parameters: species or system Homo sapiens
[20] = Half life in C57BL mouse at 2 mg/kg,iv measured upto 24 hrs by LC-MS/MS analysis; type: ADME, organism-based; details: in vivo

bioavailability [1]: 88% | solubility thermodynamic [4]: 371 µM (≈ 162 µg/mL) | Cmax [5]: 6200 ng/mL | half-life [6]: > 6.18 h | half-life [7]: > 3 h | solubility thermodynamic [9]: 25 µg/mL (≈ 57.3 µM) | Kd [10]: 0.00222 µM | AUC(0-inf) [11]: 64600 ng·h/mL | half-life [13]: > 3 h | IC50 [14]: 14 µM | bioavailability [15]: 125% | inhibition [16]: 96% | fold induction at 10 µM (CYP3A4 [17]): 2.5 | fold induction at 1 µM (CYP3A4 [18]): < 2 | IC50 [19]: > 10 µM | half-life [20]: 5.7 h
SMILES: CCn1c(CO)nn(-c2cc3c(C(C)C)cn(-c4ccccc4C)c(=O)c3cc2F)c1=O
IC50 [2]: > 10 µM | inhibition in vivo at 0.031 mg/kg (MOLM-13 [3]): 42% | inhibition in vivo at 0.062 mg/kg (MOLM-13 [8]): 75% | inhibition in vivo at 0.125 mg/kg (MOLM-13 [12]): 92%
